Data on 13 molecules can be found in US5474921A, “Expression and purification of phosphoinositide-specific phospholipase C-γ” (Merck & Co., Inc., priority 1993, dated 1995).

One data set has as its target T1, PLCγ1 (Rattus norvegicus, UniProt P10686).
T1 construct: made in house; host or cells: E. coli BL21 (DE3)
T1 sequence (P10686 with tags, fused parts or gaps limits assumed): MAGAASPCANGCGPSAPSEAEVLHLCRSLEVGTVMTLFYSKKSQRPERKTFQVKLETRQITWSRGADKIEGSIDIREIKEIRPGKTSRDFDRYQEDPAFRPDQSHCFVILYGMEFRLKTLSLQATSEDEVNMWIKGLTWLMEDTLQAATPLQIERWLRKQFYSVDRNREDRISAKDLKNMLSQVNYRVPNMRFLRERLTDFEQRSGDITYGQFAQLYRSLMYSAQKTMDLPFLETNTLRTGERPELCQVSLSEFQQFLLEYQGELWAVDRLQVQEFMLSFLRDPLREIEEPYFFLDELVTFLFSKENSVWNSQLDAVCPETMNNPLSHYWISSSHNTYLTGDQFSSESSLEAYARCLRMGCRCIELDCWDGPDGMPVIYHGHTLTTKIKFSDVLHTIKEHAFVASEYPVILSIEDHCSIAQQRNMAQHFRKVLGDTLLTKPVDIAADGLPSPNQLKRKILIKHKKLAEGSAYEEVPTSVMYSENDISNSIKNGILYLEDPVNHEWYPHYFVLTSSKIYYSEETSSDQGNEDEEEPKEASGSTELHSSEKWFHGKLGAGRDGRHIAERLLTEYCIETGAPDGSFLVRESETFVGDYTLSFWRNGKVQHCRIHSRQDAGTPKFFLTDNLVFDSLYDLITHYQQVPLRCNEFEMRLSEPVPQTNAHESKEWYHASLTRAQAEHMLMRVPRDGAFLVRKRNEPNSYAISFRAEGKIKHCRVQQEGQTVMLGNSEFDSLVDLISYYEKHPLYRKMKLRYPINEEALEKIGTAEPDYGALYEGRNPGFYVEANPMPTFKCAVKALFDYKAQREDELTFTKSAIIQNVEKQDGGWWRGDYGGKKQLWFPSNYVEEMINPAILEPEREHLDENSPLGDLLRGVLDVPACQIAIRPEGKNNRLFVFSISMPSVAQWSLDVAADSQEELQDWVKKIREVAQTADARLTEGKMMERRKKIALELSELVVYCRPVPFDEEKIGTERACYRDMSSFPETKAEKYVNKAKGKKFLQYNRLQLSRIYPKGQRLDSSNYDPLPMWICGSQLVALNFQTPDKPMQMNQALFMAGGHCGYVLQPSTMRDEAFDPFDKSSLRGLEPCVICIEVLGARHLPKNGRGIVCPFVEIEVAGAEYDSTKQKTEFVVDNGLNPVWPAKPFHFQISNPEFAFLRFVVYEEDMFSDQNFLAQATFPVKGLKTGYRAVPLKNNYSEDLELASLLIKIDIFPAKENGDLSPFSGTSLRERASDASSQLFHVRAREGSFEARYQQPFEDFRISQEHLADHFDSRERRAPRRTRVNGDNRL
Description: Assay of inhibitory activity of compounds against PLCγ1 (hydrolysis of [3H]-phosphatidyl inositol by purified bacterially expressed PLCγ1). The class given is biochemical. To be noted: 30° C., pH 7.5, 0.1% deoxycholate, compound included prior to addition of enzyme. The source says:
Subcloning of the PLCγ1 Coding Sequence. Rat brain cDNA is synthesized using rat brain poly(A)RNA as template by literature protocol (Sambrook, J. et al., Molecular Cloning: A Laboratory Manual, Cold Spring Harbor Laboratory Press, Cold Spring Harbor, N.Y.). From the published cDNA sequence of rat brain PLCγ1 (Suh, P. -G., Ryu, S. H., Moon, K. H., Suh, H. W., & Rhee, S. G. (1988) Proc. Natl. Acad. Sci. USA 85, 5419-5423), PCR primers, one which contains a BamHI restriction site upstream of the sequence complementary to the 5' end of the PLCγ gene (primer 01 ), and the other one which contains a HindIII site downstream of the 3' end of the PLCγ gene (primer 04), were synthesized. Carrying out the PCR using these primers (01 and 04) with the above mentioned rat brain eDNA as template, a DNA fragment with the entire rat brain PLCγ1 coding sequence, flanked by a 5' BamHI site and a 3' HindIII site, is generated. This BarnHI-HindIII fragment containing the coding sequence of PLCγ1 was subcloned into pBSII(S/K)+, generating pPLCl. The rest of the manipulations were accomplished using PCR to generate the appropriate DNA fragment. The 5' end of the PLCγ1 gene was altered to include a new BarnHi site and a sequence that would eventually translationally couple the expression of PLCγ to the .phi.10 gene of the pT5T vector as described by Eisenberg, S. P., Evans, R. J., Arend, W. P., Verderber, E., Brewer, M. T., Hannum, C. H., & Thompson, R. C. (1990) Nature(London) 343,341-346.
Using the isolated mutant fragments from each of these PCRs together as template, the final PCR was carried out using primers 03-06 which yielded, after restriction enzyme digestion, a SphI and HindIll fragment which was used to replace the analogous fragment in pPLC2. The resulting plasmid, pPLC3, contained the coding sequence of the PLCγ1 gene on a BarnHI-HindlII fragment with both the sequence encoding the Glu-Glu-Phe tag at the 3' end as well as the changed AGG codons. […] (SEQ.ID.NO.: 3) Finally, the BarnHI-HindIII fragment from pPLC3 was transferred into the BamHI-HindIII site of pTST, generating pTST-PLC4. This construct was used to produce PLCγ1 (containing the Glu-Glu-Phe epitope tag at the C-terminus) translationally coupled to the expression of .phi.10 protein in the pT5T vector.
Expression and Purification of PLCγ1. To express PLCγ1 the plasmid pT5T-PLC4 was transformed into E. coli BL21 (DE3). The transformed cells were grown in LB media containing ampicillin (100 μg/ml) and tetracycline (12.5 μg/ml) at 20° C. until the optical density of the cultures at 550 nm was equal to 0.8. This transformed bacterial cell has been deposited with the ATCC and has been assigned the number ATCC 69421. Expression of PLCγ1 was then induced by addition of isopropyl β-D-thiogalactopyranoside (0.5 mM final concentration) to the cultures. After growing for another 6 hours the cells were harvested and PLCγ1 was purified as described below. PLCγ1 was isolated from E. coli by resuspending a cell pellet in standard buffer, 50 mM Tris-C1 pH 8.0, 2 mM MgCl2, 10 mM CaCl2, 1 mM EGTA, 5 mM DTT, 5 mM streptomycin sulfate, 1 mM PMSF, 2 μg/ml leupeptin, 2 μg/ml antipain, 10 μg/ml aprotinin (approximately 5 g wet packed cells/10 ml buffer). The resuspended cells were broken by sonication and the cell debris pelleted by centrifugation at 30,000×g at 4° C. for 30 minutes. The soluble fraction was applied at a flow rate of approximately 0.5 ml/min. to a 2 ml column of the monoclonal antibody YL 1/2(4 mg antibody/ml resin) coupled to cyanogen bromide activated Sepharose. The YL1/2 Sepharose column, which binds the epitope tag Glu-Glu-Phe had previously been equilibrated with standard buffer. After loading the protein onto the column, the column was washed with standard buffer (100 mls) PLCγ1 was eluted with 3×5ml 5 mM Asp-Phe dipeptide (Sigma) in standard buffer. The column was regenerated by washing with phosphate buffered saline (PBS)+2 M NaCl and then stored in PBS +0.02% NaN3 (wt./vol). […]

Another data set concerns phospholipase C. To be noted: background statement; cited from earlier work.
For another data set, the system named is macrophages. To be noted: background statement; cited from earlier work.
The next data set concerns platelets. To be noted: background statement; cited from earlier work.
Data set [1] is described as follows: Assay of purified PLCγ1 activity (hydrolysis of [3H]-phosphatidyl inositol). The following applies: 30° C., 50 mM HEPES pH 7.5; bacterially expressed vs naturally derived enzyme in the same assay. In kind it is biochemical. The source says:
Reactions were never allowed to proceed to more than 10% completion based on the limiting substrate.

One may read the IC50 as the point on the concentration scale where inhibition reaches its midpoint. A high value points to weaker potency in that assay. On PLCγ1 (Table 1), `O=P(O)(O)C(O)c1cccc(Oc2ccccc2Cl)c1` (stereo not drawn) [drawing 1: R3=Cl, R4=H, R5=H] returned an IC50 of 17 µM.

`O=P(O)(O)C(O)c1cccc(Oc2ccc(Cl)c(Cl)c2)c1` (stereo not drawn) [drawing 1: R3=H, R4=Cl, R5=Cl] returned a concentration for half-maximal inhibition (IC50) on PLCγ1 (Table 1) of 56 µM.

Consider `O=P(O)(O)C(O)c1cccc(Oc2cccc(Cl)c2)c1` (stereo not drawn) [drawing 1: R3=H, R4=Cl, R5=H], for which, at PLCγ1 (Table 1), the IC50 was determined as 10 µM.

Consider `Cc1ccc(Oc2cccc(C(O)P(=O)(O)O)c2)cc1` (stereo not drawn) [drawing 1: R3=H, R4=H, R5=CH3], for which the IC50 at PLCγ1 (Table 1) worked out at 13 µM.

As to `O=P(O)(O)C(O)c1cccc(Oc2ccc(Cl)cc2)c1` (stereo not drawn) [drawing 1: R3=H, R4=H, R5=Cl], half-maximal inhibition against PLCγ1 (Table 1) (IC50) required 36 µM.

Regarding `O=P(O)(O)C(O)c1cccc(Oc2ccccc2)c1` (stereo not drawn) [drawing 1: R3=H, R4=H, R5=H], the IC50 on PLCγ1 (Table 1) came out at 190 µM.

Regarding `COc1ccc(Oc2cccc(C(O)P(=O)(O)O)c2)cc1` (stereo not drawn) [drawing 1: R3=H, R4=H, R5=OCH3], on PLCγ1 (Table 1), the IC50 turned out to be 7 µM.

In turn, `O=P(O)(O)C(O)c1cccc(Oc2ccc(O)cc2)c1` (stereo not drawn) [drawing 1: R3=H, R4=H, R5=OH] yielded an IC50 at PLCγ1 (Table 1) of 3 µM.

With `CCc1cccc(Oc2ccc(C(O)P(=O)(O)O)cc2)c1` (stereo not drawn) [drawing 2: R3=H, R4=CH2CH3, R5=H], on PLCγ1 (Table 2), the IC50 worked out at 37 µM.

`O=P(O)(O)C(O)c1ccc(Oc2cccc(Cl)c2)cc1` (stereo not drawn) [drawing 2: R3=H, R4=Cl, R5=H]: half-maximal inhibition against PLCγ1 (Table 2) (IC50) was put at 5 µM.

Turning to `COc1cccc(Oc2ccc(C(O)P(=O)(O)O)cc2)c1` (stereo not drawn) [drawing 2: R3=H, R4=OCH3, R5=H], the IC50 on PLCγ1 (Table 2) is 8 µM.

In the case of `c1ccc2c(c1)Nc1ccccc1S2` [phenothiazine], the “inhibition of phospholipase C” value in the data set on phospholipase C is reported as “inhibited”. The “inhibition of stimulated release of arachidonic acid from macrophages” value in the data set on macrophages is recorded as “inhibit”. Further, the “inhibition of stimulated release of prostaglandins from platelets” value with platelets is given as “inhibit”.

B1: bacterially expressed PLCγ1: rat brain PLCγ1 with C-terminal Glu-Glu-Phe epitope tag, expressed in E. coli BL21 (DE3) from plasmid pT5T-PLC4 (protein, UniProt P10686 2-1290, looked up)
1-phosphatidylinositol …: AGVGTPCANGCGPSAPSEAEVLHLCRSLEVGTVMTLFYSKKSQRPERKTFQVKLETRQITWSRGADKIEGSIDIREIKEIRPGKTSRDFDRYQEDPAFRPDQSHCFVILYGMEFRLKTLSLQATSEDEVNMWIKGLTWLMEDTLQAATPLQIERWLRKQFYSVDRNREDRISAKDLKNMLSQVNYRVPNMRFLRERLTDFEQRSGDITYGQFAQLYRSLMYSAQKTMDLPFLETNTLRTGERPELCQVSLSEFQQFLLEYQGELWAVDRLQVQEFMLSFLRDPLREIEEPYFFLDELVTFLFSKENSVWNSQLDAVCPETMNNPLSHYWISSSHNTYLTGDQFSSESSLEAYARCLRMGCRCIELDCWDGPDGMPVIYHGHTLTTKIKFSDVLHTIKEHAFVASEYPVILSIEDHCSIAQQRNMAQHFRKVLGDTLLTKPVDIAADGLPSPNQLKRKILIKHKKLAEGSAYEEVPTSVMYSENDISNSIKNGILYLEDPVNHEWYPHYFVLTSSKIYYSEETSSDQGNEDEEEPKEASGSTELHSSEKWFHGKLGAGRDGRHIAERLLTEYCIETGAPDGSFLVRESETFVGDYTLSFWRNGKVQHCRIHSRQDAGTPKFFLTDNLVFDSLYDLITHYQQVPLRCNEFEMRLSEPVPQTNAHESKEWYHASLTRAQAEHMLMRVPRDGAFLVRKRNEPNSYAISFRAEGKIKHCRVQQEGQTVMLGNSEFDSLVDLISYYEKHPLYRKMKLRYPINEEALEKIGTAEPDYGALYEGRNPGFYVEANPMPTFKCAVKALFDYKAQREDELTFTKSAIIQNVEKQDGGWWRGDYGGKKQLWFPSNYVEEMINPAILEPEREHLDENSPLGDLLRGVLDVPACQIAIRPEGKNNRLFVFSISMPSVAQWSLDVAADSQEELQDWVKKIREVAQTADARLTEGKMMERRKKIALELSELVVYCRPVPFDEEKIGTERACYRDMSSFPETKAEKYVNKAKGKKFLQYNRLQLSRIYPKGQRLDSSNYDPLPMWICGSQLVALNFQTPDKPMQMNQALFMAGGHCGYVLQPSTMRDEAFDPFDKSSLRGLEPCVICIEVLGARHLPKNGRGIVCPFVEIEVAGAEYDSTKQKTEFVVDNGLNPVWPAKPFHFQISNPEFAFLRFVVYEEDMFSDQNFLAQATFPVKGLKTGYRAVPLKNNYSEDLELASLLIKIDIFPAKENGDLSPFSGTSLRERASDASSQLFHVRAREGSFEARYQQPFEDFRISQEHLADHFDSRERRAPRRTRVNGDNRL
modifications: C-terminal Glu-Glu-Phe epitope tag
B1 gave a specific activity in data set [1] of 13.8 µmol/min/mg.
